What is called IC50 is the concentration that gives 50% inhibition. Usually Vmax stands for the top rate of the reaction or transport when substrate is in excess.

Data set [1] deals with Cytochrome P450 2C19 (Homo sapiens, UniProt P33261). Briefly: Metabolism-dependent inhibition of CYP2C19 in human liver microsomes using S-mephenytoin as substrate preincubated for 20 mins with NADPH prior to initiation of reaction with probe substrate by HPLC analysis. Type of data set: ADME.
The target in data set [2] is MDR1 (P-gp, ABCB1) (Homo sapiens, UniProt P08183). Briefly: Activity at human MDR1 expressed in MDCK2 cells assessed as apical to basolateral mass balance at 3 uM by liquid scintillation counting analysis. It is filed as ADME, cell-based, MDCK-II. The conditions noted are these: MDCK-MDR1, read-out: Activity.
Data set [3] has as its target T1, Broad substrate specificity ATP-binding cassette transporter ABCG2 (Homo sapiens, UniProt Q9UNQ0).
T1 sequence (Q9UNQ0 whole entry): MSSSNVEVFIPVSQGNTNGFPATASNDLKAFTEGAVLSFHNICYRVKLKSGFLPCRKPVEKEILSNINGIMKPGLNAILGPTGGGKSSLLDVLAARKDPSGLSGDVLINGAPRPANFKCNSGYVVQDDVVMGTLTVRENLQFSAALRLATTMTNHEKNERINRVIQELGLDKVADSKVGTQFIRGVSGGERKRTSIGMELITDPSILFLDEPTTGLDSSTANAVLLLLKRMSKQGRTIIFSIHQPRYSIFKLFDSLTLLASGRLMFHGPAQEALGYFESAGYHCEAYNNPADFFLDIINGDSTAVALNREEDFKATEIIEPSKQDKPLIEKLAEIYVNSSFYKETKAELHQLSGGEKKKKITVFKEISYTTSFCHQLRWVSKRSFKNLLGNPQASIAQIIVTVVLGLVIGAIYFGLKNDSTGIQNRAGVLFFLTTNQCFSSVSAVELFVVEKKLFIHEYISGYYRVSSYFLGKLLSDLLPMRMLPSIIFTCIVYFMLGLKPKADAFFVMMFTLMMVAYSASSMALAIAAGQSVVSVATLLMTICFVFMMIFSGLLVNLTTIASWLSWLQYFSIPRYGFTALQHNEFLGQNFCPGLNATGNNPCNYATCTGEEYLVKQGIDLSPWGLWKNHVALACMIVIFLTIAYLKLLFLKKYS
Briefly: Inhibition of BCRP (unknown origin) expressed in MDCK2 cells assessed as basolateral to apical transport of [14C]cimetidine at 30 uM after 90 mins by liquid scintillation counting analysis. Type of data set: ADME, cell-based. The conditions noted are these: mdck-ii, 1.5 h.

In data set [4] the target is T2, Cytochrome P450 1A2 (Homo sapiens, UniProt P05177).
T2 sequence (P05177 whole entry): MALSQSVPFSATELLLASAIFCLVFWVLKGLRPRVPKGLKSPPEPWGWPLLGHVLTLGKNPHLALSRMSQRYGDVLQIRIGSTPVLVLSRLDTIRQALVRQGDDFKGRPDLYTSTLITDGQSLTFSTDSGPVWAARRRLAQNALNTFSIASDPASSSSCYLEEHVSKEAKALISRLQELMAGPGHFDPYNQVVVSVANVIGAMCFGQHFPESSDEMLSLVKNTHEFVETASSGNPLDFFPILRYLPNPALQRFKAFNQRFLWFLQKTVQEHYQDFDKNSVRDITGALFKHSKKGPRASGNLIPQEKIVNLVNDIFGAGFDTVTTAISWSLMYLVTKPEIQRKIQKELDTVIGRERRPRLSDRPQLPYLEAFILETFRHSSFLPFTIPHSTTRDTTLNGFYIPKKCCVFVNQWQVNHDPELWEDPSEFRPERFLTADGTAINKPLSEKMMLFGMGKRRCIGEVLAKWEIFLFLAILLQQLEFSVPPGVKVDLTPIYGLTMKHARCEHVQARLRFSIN
Briefly: Inhibition of CYP1A2 in human liver microsomes using phenacetin as substrate preincubated for 20 mins with substrate prior to initiation of reaction with NADPH by HPLC analysis. It is filed as ADME.

The target in data set [5] is Cytochrome P450 2A6 (Homo sapiens, UniProt P11509). Briefly: Inhibition of CYP2A6 in human liver microsomes using coumarin as substrate preincubated for 20 mins with substrate prior to initiation of reaction with NADPH by HPLC analysis. Type of data set: ADME.
Data set [6] deals with T3, Cytochrome P450 2C8 (Homo sapiens, UniProt P10632).
T3 sequence (P10632 whole entry): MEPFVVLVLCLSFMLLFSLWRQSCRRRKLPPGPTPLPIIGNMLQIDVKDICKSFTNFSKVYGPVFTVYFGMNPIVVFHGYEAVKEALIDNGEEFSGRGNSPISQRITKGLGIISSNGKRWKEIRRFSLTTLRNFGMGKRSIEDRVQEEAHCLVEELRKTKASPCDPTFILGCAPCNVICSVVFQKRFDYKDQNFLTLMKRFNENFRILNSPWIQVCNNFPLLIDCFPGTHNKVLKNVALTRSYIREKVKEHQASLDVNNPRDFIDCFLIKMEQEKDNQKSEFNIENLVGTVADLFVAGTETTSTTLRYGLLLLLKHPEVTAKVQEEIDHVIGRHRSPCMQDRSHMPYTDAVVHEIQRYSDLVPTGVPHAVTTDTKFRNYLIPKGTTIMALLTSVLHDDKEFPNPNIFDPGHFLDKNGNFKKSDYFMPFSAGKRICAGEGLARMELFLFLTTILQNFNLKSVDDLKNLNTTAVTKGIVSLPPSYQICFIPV
Briefly: Inhibition of CYP2C8 in human liver microsomes using rosiglitazone as substrate preincubated for 20 mins with substrate prior to initiation of reaction with NADPH by HPLC analysis. Type of data set: ADME. In general terms: Liver microsomes are a subcellular fraction often used to study metabolism.

Data set [7] addresses T4, UDP-glucuronosyltransferase 1A1 (Homo sapiens, UniProt P22309).
T4 sequence (P22309 whole entry): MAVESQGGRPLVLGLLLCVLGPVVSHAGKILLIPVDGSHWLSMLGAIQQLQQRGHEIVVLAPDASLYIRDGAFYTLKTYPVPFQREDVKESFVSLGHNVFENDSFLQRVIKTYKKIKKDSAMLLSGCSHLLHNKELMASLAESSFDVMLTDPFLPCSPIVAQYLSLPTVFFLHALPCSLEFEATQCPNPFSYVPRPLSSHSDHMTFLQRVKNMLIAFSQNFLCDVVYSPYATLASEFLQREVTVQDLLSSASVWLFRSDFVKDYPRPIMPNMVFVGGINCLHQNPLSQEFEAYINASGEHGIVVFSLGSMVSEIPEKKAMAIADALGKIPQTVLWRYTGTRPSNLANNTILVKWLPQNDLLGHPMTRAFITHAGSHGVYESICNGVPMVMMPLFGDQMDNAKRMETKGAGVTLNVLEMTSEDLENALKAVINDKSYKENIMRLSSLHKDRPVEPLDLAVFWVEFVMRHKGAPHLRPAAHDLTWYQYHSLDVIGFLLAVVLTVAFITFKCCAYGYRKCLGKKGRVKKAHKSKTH
Briefly: Drug metabolism in UDPGA-fortified human liver microsomes assessed as UGT1A1-mediated DTG glucuronide M2 ((2S,3S,4S,5R,6S)-6-((4R,12aS)-9-(2,4-difluorobenzylcarbamoyl)-4-methyl-6,8-dioxo-3,4,6,8,12,12a-hexahydro-2H-[1,3]oxazino[3,2-d]pyrido[1,2-a]pyrazin-7-yloxy)-3,4,5-trihydroxytetrahydro-2H-pyran-2-carboxylic acid) formation after 120 mins measured per mg of protein by radio-HPLC analysis. Type of data set: ADME.

Chain of Cytochrome P450 2A6 (P11509 whole entry): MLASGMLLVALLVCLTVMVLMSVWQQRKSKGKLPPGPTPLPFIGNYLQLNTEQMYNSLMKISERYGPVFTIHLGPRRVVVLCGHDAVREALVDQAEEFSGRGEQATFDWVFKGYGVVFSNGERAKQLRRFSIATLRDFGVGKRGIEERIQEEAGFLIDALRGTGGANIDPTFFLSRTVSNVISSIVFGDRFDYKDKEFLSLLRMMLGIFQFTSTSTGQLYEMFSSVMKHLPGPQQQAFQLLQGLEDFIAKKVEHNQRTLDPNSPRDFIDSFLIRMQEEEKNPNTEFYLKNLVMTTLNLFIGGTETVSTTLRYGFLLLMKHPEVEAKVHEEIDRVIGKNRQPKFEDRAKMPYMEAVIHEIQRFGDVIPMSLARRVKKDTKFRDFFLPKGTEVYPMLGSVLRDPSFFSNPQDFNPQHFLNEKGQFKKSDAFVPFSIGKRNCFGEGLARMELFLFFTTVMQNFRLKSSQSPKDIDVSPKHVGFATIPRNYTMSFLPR
Chain of MDR1 (P-gp, ABCB1) (P08183 whole entry): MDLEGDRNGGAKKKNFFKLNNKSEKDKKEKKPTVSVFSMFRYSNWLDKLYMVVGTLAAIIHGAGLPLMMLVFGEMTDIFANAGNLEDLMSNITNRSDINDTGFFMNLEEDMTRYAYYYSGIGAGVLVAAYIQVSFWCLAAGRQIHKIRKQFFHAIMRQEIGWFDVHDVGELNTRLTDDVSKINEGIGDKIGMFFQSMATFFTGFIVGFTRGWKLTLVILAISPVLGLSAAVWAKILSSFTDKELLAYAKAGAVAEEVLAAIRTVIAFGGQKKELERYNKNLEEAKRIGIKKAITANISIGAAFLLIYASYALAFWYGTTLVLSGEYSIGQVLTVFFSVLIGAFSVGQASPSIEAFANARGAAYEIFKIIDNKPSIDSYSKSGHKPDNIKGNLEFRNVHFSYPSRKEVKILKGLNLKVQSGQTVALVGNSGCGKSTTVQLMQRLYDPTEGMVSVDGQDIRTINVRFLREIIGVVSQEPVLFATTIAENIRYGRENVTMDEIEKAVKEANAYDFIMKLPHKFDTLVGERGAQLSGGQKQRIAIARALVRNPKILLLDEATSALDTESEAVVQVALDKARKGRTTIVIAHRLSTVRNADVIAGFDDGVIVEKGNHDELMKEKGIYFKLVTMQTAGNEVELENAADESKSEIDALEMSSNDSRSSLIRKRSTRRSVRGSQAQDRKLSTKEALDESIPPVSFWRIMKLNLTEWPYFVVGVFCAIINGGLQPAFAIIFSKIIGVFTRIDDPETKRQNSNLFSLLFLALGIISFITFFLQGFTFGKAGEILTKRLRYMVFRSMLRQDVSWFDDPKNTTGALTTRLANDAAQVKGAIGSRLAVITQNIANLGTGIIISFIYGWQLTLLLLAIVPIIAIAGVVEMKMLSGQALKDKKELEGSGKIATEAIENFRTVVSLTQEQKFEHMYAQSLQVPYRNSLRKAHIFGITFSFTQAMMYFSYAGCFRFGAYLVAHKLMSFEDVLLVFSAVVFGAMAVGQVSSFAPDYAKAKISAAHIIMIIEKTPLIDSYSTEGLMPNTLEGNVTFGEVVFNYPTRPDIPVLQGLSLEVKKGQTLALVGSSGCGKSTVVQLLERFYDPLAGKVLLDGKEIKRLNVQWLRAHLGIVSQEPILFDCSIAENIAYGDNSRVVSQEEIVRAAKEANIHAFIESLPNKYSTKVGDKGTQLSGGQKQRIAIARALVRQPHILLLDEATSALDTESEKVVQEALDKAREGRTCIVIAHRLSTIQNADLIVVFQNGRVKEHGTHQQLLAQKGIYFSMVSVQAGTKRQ
Chain of Cytochrome P450 2C19 (P33261 whole entry): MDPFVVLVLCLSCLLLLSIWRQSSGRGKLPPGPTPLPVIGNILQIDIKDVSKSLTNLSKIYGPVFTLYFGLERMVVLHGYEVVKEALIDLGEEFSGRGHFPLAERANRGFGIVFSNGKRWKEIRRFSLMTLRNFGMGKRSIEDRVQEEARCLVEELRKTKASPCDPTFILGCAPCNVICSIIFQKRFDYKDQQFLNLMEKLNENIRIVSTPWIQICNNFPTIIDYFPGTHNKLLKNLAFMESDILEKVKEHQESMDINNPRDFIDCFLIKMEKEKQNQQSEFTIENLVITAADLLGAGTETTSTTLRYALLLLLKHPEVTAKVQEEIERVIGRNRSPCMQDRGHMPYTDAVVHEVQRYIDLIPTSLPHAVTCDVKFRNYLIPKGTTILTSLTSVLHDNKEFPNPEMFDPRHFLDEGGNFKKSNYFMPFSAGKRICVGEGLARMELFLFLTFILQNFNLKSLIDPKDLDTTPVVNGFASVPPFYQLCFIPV

With `C[C@@H]1CCO[C@H]2Cn3cc(C(=O)NCc4ccc(F)cc4F)c(=O)c(O)c3C(=O)N12` [DOLUTEGRAVIR], the IC50 in data set [1], in data set [4], in data set [5] and in data set [6] was over 100 µM each time. For the same compound, the recovery at 3 µM in data set [2] worked out at 84%. Besides, the “inhibition (INH)” value in data set [3] stood at 43%. Further, the Vmax in data set [7] is 409 pmol/min.

Values taken from ChEMBL document CHEMBL3526034 (Drug Metab Dispos, 2013).
